Measured values from patent publication US11505798B2, “Methods and compositions for treating inflammatory diseases” (The Regents of the University of California, priority 2019, dated 2022).

Tested on: GAPLINC
Assay: qPCR of GAPLINC in MDMs pretreated with NF-κB inhibitor, then LPS stimulation
Type: cell-based, human
Details: MDMs pretreated with 10 uM, LPS 200 ng/ml for 6 h, vs DMSO
Source text: FIGS. 14A-14I show monocytes isolated from human PBMCs and differentiated into macrophages were transfected with control or GAPLINC siRNA. […] Data from RNA-seq performed in biological duplicates. FIG. 14C: GAPLINC isoforms in MDMs as determined by Nanopore-based R2C2 sequencing. Data from Nanopore-sequencing performed in biological duplicates. FIG. 14D: Table representing read counts and percent of each GAPLINC isoform. FIG. 14E: Bi-directional vector expressing GFP-Zeocin on one side and GAPLINC on the other side. FIGS. 14F and 14G: qPCR analysis of GAPLINC expression in THP-1 cells expressing ectopic GAPLINC or empty-vector control. Levels of IL6 were quantified following stimulation with LPS (200 ng/ml) for 6 h; data pooled from three independent experiments. *p<0.05. FIG. 14H: qPCR analysis of GAPLINC in MDMs (n=3) pretreated with DMSO or BAY-7082 (10 uM), followed by LPS stimulation (200 ng/ml) for 6 h; data pooled from three independent experiments. *p<0.05. FIG. 14I: ATAC-seq analysis of monocytes and macrophages, untreated and treated with LPS (200 ng/ml) for 1 h, 6 h and 18 h.
Next, we examined GAPLINC levels in primary MDMs in response to inflammation. […] Induction of positive control inflammatory genes TNFα, IL6, and CCL5 was confirmed (FIGS. 16B-16D). […]

Cc1ccc(S(=O)(=O)/C=C/C#N)cc1 [BAY11-7082]
downregulation of GAPLINC upon LPS stimulation: impaired relative to control
